In data set [1] the test system is Mus musculus. Put plainly: Antiallergic activity in BALB/c mouse assessed as reduction in anti-DNP-IgE-mediated passive cutaneous anaphylaxis at 50 mg/kg, po administered once daily for 5 days followed by anti-DNP-IgE stimulation on day 4 and subsequent DNP-HSA challenge on day 5 post 1 hr compound dose and measured after 30 mins by Evans blue dye-based spectrophotometric method relative to control. It is filed as functional. On the set-up: scale not given: the % may be the effect or the level left.

For data set [2], the system named is RBL-2H3. Put plainly: Ratio of IC50 for antiallergic activity in rat RBL2H3 cells assessed as inhibition of DNP-HSA-mediated degranulation by measuring decrease in beta-hexosaminidase activity to IC50 for antiallergic activity in rat RBL2H3 cells assessed as inhibition of DNP-HSA-mediated degranulation by measuring decrease in beta-hexosaminidase activity in presence of FAAH inhibitor URB597. It is filed as functional.

The test system of data set [3] is RBL-2H3. Put plainly: Antiallergic activity in rat RBL2H3 cells assessed as inhibition of DNP-HSA-mediated degranulation by measuring decrease in beta-hexosaminidase activity incubated for 30 mins prior to CB2 antagonist AM630 addition further incubated for 30 mins followed by DNP-HSA stimulation and measured after 30 mins by 4-nitrophenyl 2-acetamido-2-deoxy-beta-D-glucopyranoside substrate based assay. In kind it is functional, cell-based.

Data set [4] deals with RBL-2H3. Put plainly: Antiallergic activity in rat RBL2H3 cells assessed as inhibition of DNP-HSA-mediated degranulation by measuring decrease in beta-hexosaminidase activity incubated for 30 mins prior to FAAH inhibitor URB597 addition further incubated for 30 mins followed by DNP-HSA stimulation and measured after 30 mins by 4-nitrophenyl 2-acetamido-2-deoxy-beta-D-glucopyranoside substrate based assay. It is filed as functional, cell-based.

Data set [5] deals with T1, Fatty-acid amide hydrolase 1 (Homo sapiens, UniProt O00519).
T1 sequence (O00519 whole entry): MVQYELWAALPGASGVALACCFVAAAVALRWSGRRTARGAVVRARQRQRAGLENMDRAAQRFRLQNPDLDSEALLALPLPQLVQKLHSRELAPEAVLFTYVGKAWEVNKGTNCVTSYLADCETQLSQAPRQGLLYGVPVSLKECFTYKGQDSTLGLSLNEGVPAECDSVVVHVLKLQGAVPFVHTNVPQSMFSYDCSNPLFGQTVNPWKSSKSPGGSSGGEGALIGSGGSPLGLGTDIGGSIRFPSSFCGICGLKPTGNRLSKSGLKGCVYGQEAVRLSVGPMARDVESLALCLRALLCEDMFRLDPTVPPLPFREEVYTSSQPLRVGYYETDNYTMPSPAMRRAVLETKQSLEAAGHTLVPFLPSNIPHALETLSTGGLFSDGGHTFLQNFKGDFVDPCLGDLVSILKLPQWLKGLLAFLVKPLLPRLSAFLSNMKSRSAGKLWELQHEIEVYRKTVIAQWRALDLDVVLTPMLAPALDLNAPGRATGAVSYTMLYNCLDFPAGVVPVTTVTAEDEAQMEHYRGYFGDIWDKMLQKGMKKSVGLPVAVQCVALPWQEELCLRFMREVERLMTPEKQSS
Put plainly: Substrate activity at human FAAH expressed in baculovirus infected Sf9 cells assessed as docosahexaenoic acid formation incubated for 60 mins by HPLC analysis. In kind it is ADME. To be noted: sf9, 1 h.

The subject of data set [6] is RBL-2H3. Put plainly: Antiallergic activity in rat RBL2H3 cells assessed as inhibition of DNP-HSA-mediated degranulation by measuring decrease in beta-hexosaminidase activity preincubated for 30 mins followed by DNP-HSA stimulation and measured after 30 mins by 4-nitrophenyl 2-acetamido-2-deoxy-beta-D-glucopyranoside substrate based assay. It is filed as functional, cell-based.

Data set [7] relates to Mus musculus. Put plainly: Antiallergic activity in BALB/c mouse assessed as reduction in anti-DNP-IgE-mediated passive cutaneous anaphylaxis at 1000 mg/kg, po administered once daily for 5 days followed by anti-DNP-IgE stimulation on day 4 and subsequent DNP-HSA challenge on day 5 post 1 hr compound dose and measured after 30 mins by Evans blue dye-based spectrophotometric method relative to control. Also on record: scale not given: the % may be the effect or the level left. It is filed as functional.

Data set [8] concerns the target T1, Fatty-acid amide hydrolase 1. Put plainly: Inhibition of human FAAH expressed in baculovirus infected Sf9 cells using N-(6-methoxypyridin-3-yl)octanamide as substrate measured for 15 mins by fluorescence based assay.

Consider `CC(C)(C(=O)O)c1ccc(C(O)CCCN2CCC(C(O)(c3ccccc3)c3ccccc3)CC2)cc1` (stereo not drawn) [FEXOFENADINE], for which the Activity in data set [1] was 39%.

Broadly, the IC50 is the concentration at which inhibition is half-maximal. Take `CC/C=C\C/C=C\C/C=C\C/C=C\C/C=C\C/C=C\CCC(=O)NCCO`: the “Ratio IC50” value in data set [2] came to 3. Also, the IC50 in data set [3] was 25 µM; in data set [4], 7.6 µM; in data set [6], 25 µM; in data set [8], above 50 µM. The Drug metabolism entry in data set [5] is given as “Metabolite_Detected”. Further, in data set [7], the Activity is given as 31%.

The record behind these values is ChEMBL document CHEMBL4414618, “Structure-Activity Relationships of Fish Oil Derivatives with Antiallergic Activity in Vitro and in Vivo” (J Med Chem, 2019).
